Tests used:
[1] = Cell viability assay (MTT) on normal mammary epithelial cells; assay type: cell-based; details: human, MCF-10A normal mammary gland epithelial cells, four days
Method: This test assesses the safety of new compounds 8a–l on normal cell lines. The efficacy of 8a–l was tested on the normal human mammary gland epithelial cell line MCF-10A. MCF-10A cells were incubated with 50 µM of each tested compound for four days. Cell viability was assessed using the MTT assay.[11,48] Appendix A has extra experimental details.
This assay evaluates the impact of novel compounds 8a–l on normal cell lines to determine their safety, an essential consideration in drug discovery. The efficacy of the examined compounds was evaluated utilizing the normal human mammary gland epithelial cell line MCF-10A. […]
4.2. Biological evaluation
4.2.1 Cell Viability assay (MTT assay)
(§1) MTT assay was performed to investigate the effect of the synthesized compounds on mammary epithelial cells (MCF-10A). The cells were propagated in medium consisting of Ham's F-12 medium/ Dulbecco's modified Eagle's medium (DMEM) (1:1) supplemented with 10% foetal calf serum (GIBCO, UK), 2 mM glutamine, insulin (10 μg/mL), hydrocortisone (500 ng/mL) and epidermal growth factor (20 ng/mL). Trypsin ethylenediamine tetra acetic acid (EDTA) was used to passage the cells after every 2-3 days. 96-well flat-bottomed cell culture plates were used to seed the cells at a density of 10^4 cells mL-1. The medium was aspirated from all the wells of culture plates after 24 h followed by the addition of synthesized compounds (in 200 μL medium to yield a final concentration of 0.1% (v/v) dimethyl sulfoxide) into individual wells of the plates.
(§2) Four wells were designated to a single compound. The plates were allowed to incubate at 37°C for 96 h. Afterwards, the medium was aspirated and 3-[4,5-dimethylthiazol-2-yl]-2,5-diphenyltetrazolium bromide (MTT) (0.4 mg/mL) in medium was added to each well and subsequently incubated for 3 h. The medium was aspirated and 150 μL dimethyl sulfoxide (DMSO) was added to each well. The plates were vortexed followed by the measurement of absorbance at 540 nm on a microplate reader. […]

[2] = test system: HCT-116; experiment: Antiproliferative assay (MTT); assay type: cell-based; details: Homo sapiens, HCT-116 colorectal, mean of three experiments ± SD
Excerpt: (§3) The MTT assay[53,54] was employed to evaluate the antiproliferative efficacy of new compounds 8a–l against two human cancer cell lines: MCF-7 (breast) and HCT-116 (colorectal carcinoma). Erlotinib was employed as the benchmark. Check Appendix A for additional experimental information.
(§4) The MTT assay[53,54] was used to evaluate the antiproliferative properties of novel compounds 8a–l against two human cancer cell lines: MCF-7 (breast cancer) and HCT-116 (colorectal carcinoma). Erlotinib was utilized as the reference. […] The provided values represent the means of three experiments ± standard deviation (SD). […]
as §1, with “of” for “MTT assay was performed to investigate the effect of the synthesized compounds on mammary epithelial cells (MCF-10A). The cells were propagated in medium consisting of”
as §2
(§5) All cell lines […]
(§6) were obtained from ATCC (American Type Cell Culture). […]
(§7) μM), benzamidine HCl (16 μg/mL), NaCl (10 mM),leupeptin (10 μg/mL) and pepstatin (10 μg/mL) at 0°C for 20 min at pH 7.4, followed by centrifugation for 20 min. To eliminate the nonspecifically bound material, a Ni-NTA super flow packed column was (1 picture or pasted object on this page, not shown here)

[3] = test system: MCF-7; experiment: Antiproliferative assay (MTT); assay type: cell-based; details: Homo sapiens, MCF7, MCF-7 breast, mean of three experiments ± SD
Excerpt: as §3, §4
as §1, with “of” for “MTT assay was performed to investigate the effect of the synthesized compounds on mammary epithelial cells (MCF-10A). The cells were propagated in medium consisting of”
as §2, §5, §6, §7

[4] = test system: HCT-116 and MCF-7; experiment: Antiproliferative assay, average over the two cell lines; assay type: cell-based; details: Homo sapiens; average of HCT-116 and MCF-7; read-out: Average IC50 (GI50)
Excerpt: as §3
The MTT assay[53,54] was used to evaluate the antiproliferative properties of novel compounds 8a–l against two human cancer cell lines: MCF-7 (breast cancer) and HCT-116 (colorectal carcinoma). Erlotinib was utilized as the reference. […] The provided values represent the means of three experiments ± standard deviation (SD).

[5] = target: EGFR (Homo sapiens, UniProt P00533); set-up: 645–1186; His6 (N); made in house; host or cells: Sf-9 insect cells (baculovirus; vectors pBlueBacHis2B and pFASTBacHTc); method as in PMID 35667253; details: cited from earlier work
[6] = test system: wild-type EGFR; set-up: method as in PMID 26275028; details: cited from earlier work
[7] = target: VEGFR-2 kinase; set-up: method as in PMID 24456902; details: cited from earlier work
[8] = test system: IL-6; experiment: IL-6 level by qRT-PCR in HCT-116 cells; details: HCT-116 cells, 24 hours, at IC50 against HCT-116 (8g 24 nM, 8h 23 nM), qRT-PCR
Method: (§8) The reference molecule was dexamethasone, a drug that uniformly regulates the immune system.
TNF-α and IL6 a determination
(§9) determined using of q RT-PCR technique. By using q RTPCR (reference), the amount
(§10) treated HCT-116 cells was measured (at the IC50 concentrations). Total RNA was
(§11) accordance with the manufacturer's instructions (RNeasy mini kit, Qiagen, Germany).
(§12) Following RNA extraction, the Revert Aid First Strand cDNA Synthesis kit (Thermo
(§13) Scientific, USA) was used to create cDNA. The Rotor-Gene Q real-time PCR thermal
(§14) cycler was used to amplify target cDNA for apoptosis markers and GAPDH [as a
(§15) normalization (housekeeping) gene] using one step RT-PCR SYBR® Green kit Master
(§16) Mix (Bio-Rad Laboratories, USA). Two microliters of cDNA were combined with one
(§17) microliter of forward primer, one microliter of reverse primer, ten microliters of master
(§18) mixture, and twenty microliters of nuclease-free water to complete the reaction volume.
(§19) Every experiment was carried out three times.
(§20) Quantitative Real Time Reverse-Transcriptase PCR (qRT-PCR) primer sequences
TNF-α : R 5'- [sequence] -3'.
IL6 : R 5'- [sequence] -3
GAPDH : R 5’- [sequence]-3’

[9] = test system: TNF-α; experiment: TNF-α level by qRT-PCR in HCT-116 cells; details: HCT-116 cells, 24 hours, at IC50 against HCT-116 (8g 24 nM, 8h 23 nM), qRT-PCR
Method: as §8
TNF-α and IL6 a determination
as §9, §10, §11, §12, §13, §14, §15, §16, §17, §18, §19, §20
TNF-α : R 5'- [sequence] -3'.
IL6 : R 5'- [sequence] -3
GAPDH : R 5’- [sequence]-3’

[10] = test system: Caspase-3; experiment: Caspase-3 activation assay in HCT-116 cells; assay type: cell-based, human
Method: Appendix A gives more details.
Additionally, activating caspases is essential for both initiating and terminating the apoptotic process.[64] Caspase-3 is an essential enzyme that cleaves several proteins within cells, leading to apoptotic cell death.[65] […]
be read immediately after the Stop Solution is added or within one hour if the microwell strips are stored at 2 - 8°C in the dark. Read the absorbance of each microwell on a spectrophotometer using 450 nm as the primary wavelength.
4.2.5. Caspase-3 activation assay
Allow all reagents to reach room temperature before use. Gently mix all liquid reagents prior to use. Determine the number of 8-well strips needed for the assay. Insert these in the frame(s) for current use. Add 100 μl of the Standard Diluent Buffer to the zero standard wells. Well(s) reserved for chromogen blank should be left empty. Add 100 μl of standards and controls or diluted samples to the appropriate microtiter wells. The sample dilution chosen should be optimized for each experimental system. Tap gently on side of plate to mix. Cover wells with plate cover and incubate for 2 hours at room temperature. Thoroughly aspirate or decant solution from wells and discard the liquid, Wash wells 4 times. Pipette 100 μl of Caspase-3 (Active) Detection Antibody solution into each well except the chromogen blank(s). Tap gently on the side of the plate to mix. Cover plate with plate cover and incubate for 1 hour at room temperature.
Thoroughly aspirate or decant solution from wells and discard the liquid, Wash wells 4 times. Add 100 μl Anti-Rabbit IgG HRP Working Solution to each well except the chromogen blank(s). Prepare the working dilution as described in Preparing IgG HRP.
Cover wells with the plate cover and incubate for 30 minutes at room temperature.
Thoroughly aspirate or decant solution from wells and discard the liquid. Wash wells 4 times. Add 100 μl of Stabilized Chromogen to each well. The liquid in the wells will […]
begin to turn blue. […] The
Tap side of plate gently to mix.
Use a curve fitting software to generate […]
for the dilution in step 3.
4.2.6. Caspase-8/9 activation assay
This lysate was diluted in […]

[11] = test system: Caspase-9; experiment: Caspase-9 activation assay in HCT-116 cells

Sequence of EGFR (P00533 669-1210): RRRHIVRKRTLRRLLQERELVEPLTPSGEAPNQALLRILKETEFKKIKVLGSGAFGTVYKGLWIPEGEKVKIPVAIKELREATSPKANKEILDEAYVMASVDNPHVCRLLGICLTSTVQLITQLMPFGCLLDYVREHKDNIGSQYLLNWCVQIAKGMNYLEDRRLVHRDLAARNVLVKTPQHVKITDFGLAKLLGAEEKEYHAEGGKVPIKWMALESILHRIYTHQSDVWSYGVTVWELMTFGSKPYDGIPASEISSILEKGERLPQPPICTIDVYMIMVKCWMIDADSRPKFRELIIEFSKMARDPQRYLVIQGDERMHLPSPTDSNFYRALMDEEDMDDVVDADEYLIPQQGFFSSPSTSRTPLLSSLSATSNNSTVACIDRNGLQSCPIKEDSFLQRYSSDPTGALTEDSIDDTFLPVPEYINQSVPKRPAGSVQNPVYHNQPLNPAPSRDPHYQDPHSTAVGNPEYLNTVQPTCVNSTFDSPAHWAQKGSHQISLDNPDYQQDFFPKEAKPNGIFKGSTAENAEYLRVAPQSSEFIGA

| SMILES | IC50 [2] | IC50 [3] | IC50 [4] | viability at 4 days, 50 µM [1] | also measured |
| --- | --- | --- | --- | --- | --- |
| CC(=O)Nc1ccc(/C(N)=N/OC(=O)c2ccc3cn[nH]c3c2)cc1 [Compound XIII] |  |  |  |  | IC50 [5]: 85 ± 5 nM |
| C=CC(=O)Nc1cccc(Oc2nc(Nc3n[nH]c4ccccc34)cc(N3CCN(C)CC3)n2)c1 [Compound XII] |  |  |  |  | IC50 [6]: 1700 nM |
| CN(c1ccc2cn(C)nc2c1)c1ccnc(Nc2ccc(OC(F)(F)F)cc2)n1 [Compound XIV] |  |  |  |  | IC50 [7]: 12 nM |
| C[C@@H]1C[C@H]2[C@@H]3CCC4=CC(=O)C=C[C@]4(C)[C@@]3(F)[C@@H](O)C[C@]2(C)[C@@]1(O)C(=O)CO [Dexamethasone, reference compound] |  |  |  |  | IL-6 (% inhibition) [8]: 93%; IL-6 (% inhibition) ([8]; listed as dexamethasone): 93.2%; TNF-α (% inhibition) [9]: 83%; TNF-α (% inhibition) ([9]; listed as dexamethasone): 82.7% |
| C#Cc1cccc(Nc2ncnc3cc(OCCOC)c(OCCOC)cc23)c1 [Erlotinib, reference compound] | 30 ± 2 nM | 40 ± 3 nM | 35 nM |  |  |
| CN[C@@H]1C[C@H]2O[C@@](C)([C@@H]1OC)n1c3ccccc3c3c4c(c5c6ccccc6n2c5c31)C(=O)NC4 [Staurosporine, reference compound] |  |  |  |  | Caspase-3 Conc. [10]: 465 ± 4 pg/mL; Caspase-9 Conc. [11]: 20 ± 1 ng/mL |

Further lines, with some results ahead:

| IC50 [2] | IC50 [3] | IC50 [4] | SMILES | viability at 4 days, 50 µM [1] | also measured |
| --- | --- | --- | --- | --- | --- |
| 42 ± 4 nM | 54 ± 4 nM | 48 nM | CCCCCNC(=O)NNC(=O)c1n[nH]c2ccc(S(=O)(=O)CC)cc12 [Compound 8a, 2-(5-(Ethylsulfonyl)-1H-indazole-3-carbonyl)-N-pentylhydrazine-1-carboxamide] | 90% |  |
| 33 ± 3 nM | 40 ± 3 nM | 37 nM | CCCCCCNC(=O)NNC(=O)c1n[nH]c2ccc(S(=O)(=O)CC)cc12 [Compound 8b, 2-(5-(Ethylsulfonyl)-1H-indazole-3-carbonyl)-N-hexylhydrazine-1-carboxamide] | 92% |  |
| 30 ± 2 nM | 34 ± 2 nM | 32 nM | CCCCCCCNC(=O)NNC(=O)c1n[nH]c2ccc(S(=O)(=O)CC)cc12 [Compound 8c, 2-(5-(Ethylsulfonyl)-1H-indazole-3-carbonyl)-N-heptylhydrazine-1-carboxamide] | 91% |  |
| 28 ± 1 nM | 31 ± 2 nM | 30 nM | CCCCCCCCNC(=O)NNC(=O)c1n[nH]c2ccc(S(=O)(=O)CC)cc12 [Compound 8d, 2-(5-(Ethylsulfonyl)-1H-indazole-3-carbonyl)-N-octylhydrazine-1-carboxamide] | 90% |  |
| 31 ± 3 nM | 39 ± 3 nM | 35 nM | CCS(=O)(=O)c1ccc2[nH]nc(C(=O)NNC(=O)NC3CCCCC3)c2c1 [Compound 8e, 2-(5-(Ethylsulfonyl)-1H-indazole-3-carbonyl)-N-(cyclohexyl)hydrazine-1-carboxamide] | 91% |  |
| 39 ± 3 nM | 50 ± 4 nM | 45 nM | CCS(=O)(=O)c1ccc2[nH]nc(C(=O)NNC(=O)NC3CCC(C)CC3)c2c1 (centres unmarked) [Compound 8f, 2-(5-(Ethylsulfonyl)-1H-indazole-3-carbonyl)-N-(4-methylcyclohexyl)hydrazine-1-carboxamide] | 92% |  |
| 36 ± 3 nM | 44 ± 4 nM | 40 nM | CCS(=O)(=O)c1ccc2[nH]nc(C(=O)NNC(=O)Nc3ccc(F)cc3)c2c1 [Compound 8i, 2-(5-(Ethylsulfonyl)-1H-indazole-3-carbonyl)-N-(4-fluorophenyl)hydrazine-1-carboxamide] | 91% |  |
| 31 ± 2 nM | 36 ± 2 nM | 34 nM | CCS(=O)(=O)c1ccc2[nH]nc(C(=O)NNC(=O)NCc3ccccc3)c2c1 [Compound 8j, 2-(5-(Ethylsulfonyl)-1H-indazole-3-carbonyl)-N-(benzyl)hydrazine-1-carboxamide] | 90% |  |
| 30 ± 2 nM | 32 ± 2 nM | 31 nM | CCS(=O)(=O)c1ccc2[nH]nc(C(=O)NNC(=O)NCc3ccc(OC)cc3)c2c1 [Compound 8k, 2-(5-(Ethylsulfonyl)-1H-indazole-3-carbonyl)-N-(4-methoxybenzyl)hydrazine-1-carboxamide] | 92% |  |
| 37 ± 3 nM | 46 ± 4 nM | 42 nM | CCS(=O)(=O)c1ccc2[nH]nc(C(=O)NNC(=O)NCCc3ccccc3)c2c1 [Compound 8l, 2-(5-(Ethylsulfonyl)-1H-indazole-3-carbonyl)-N-phenethylhydrazine-1-carboxamide] | 91% |  |

— article PMC12679585, “Design, synthesis, and characterization of novel 5-ethylsulfonyl-indazole-3-carboxamides as dual VEGFR-2 and EGFR inhibitors: apoptotic antiproliferative and immunomodulatory evaluations” (RSC Advances, 2025)
